Drawing on US11072612B2, “NLRP3 modulators” (INNATE TUMOR IMMUNITY, INC., priority 2016, dated 2021), this text covers EC50 for 24 compounds.

Where only a bound is given, the exact number is not on record here.

What all share (assay type): cell-based
The target in one test is T1, hNLRP3 (Homo sapiens, UniProt Q96P20).
T1 construct: THP-1 cells were purchased from the American Type Culture Collection; host or cells: THP-1 cells, PMA-differentiated
Description: hNLRP3 agonist assay: IL-1β production in PMA-differentiated THP-1 cells (ELISA). To be noted: Table 2, 4 hours, IL-1β by ELISA. Here is the method: THP-1 cells were purchased from the American Type Culture Collection and sub-cultured according to instructions from the supplier. Prior to experiments, cells were cultured in RPMI 1640 containing 10% heat inactivated FBS, penicillin (100 units/ml) and streptomycin (100 μg/ml), and maintained in log phase prior to experimental setup. Prior to the experiment THP-1 were treated with PMA (Phorbol 12-myristate 13-acetate) (10 μg/ml) for 24 hours. The day of the experiment the media was removed and attaching cells were treated with trypsin for 2 minutes, cells were then collected, washed with PBS (phosphate buffer saline), spin down, resuspended in 2% heat inactivated FBS with RPMI at a concentration of 1×10^6 cells/ml, and 100 μl was plated in a 96 well plate. Cells were incubated with compounds for 4 hours. Cell free supernatant was collected and the production of IL-1β was evaluated by ELISA. Compounds were dissolved in dimethyl sulfoxide (DMSO) and added to the culture medium to achieve desired concentration (e.g. 100, 30, 10, 3, 1, 0.3 or 0.1 μM). A vehicle only control was run concurrently with each experiment. Final DMSO concentration was 1%.
(In an ELISA, binding on a coated surface is turned into a signal by an enzyme label.)

A further test has as its target T2, TLR7 (Homo sapiens, UniProt Q9NYK1).
T2 sequence (Q9NYK1 27-1049): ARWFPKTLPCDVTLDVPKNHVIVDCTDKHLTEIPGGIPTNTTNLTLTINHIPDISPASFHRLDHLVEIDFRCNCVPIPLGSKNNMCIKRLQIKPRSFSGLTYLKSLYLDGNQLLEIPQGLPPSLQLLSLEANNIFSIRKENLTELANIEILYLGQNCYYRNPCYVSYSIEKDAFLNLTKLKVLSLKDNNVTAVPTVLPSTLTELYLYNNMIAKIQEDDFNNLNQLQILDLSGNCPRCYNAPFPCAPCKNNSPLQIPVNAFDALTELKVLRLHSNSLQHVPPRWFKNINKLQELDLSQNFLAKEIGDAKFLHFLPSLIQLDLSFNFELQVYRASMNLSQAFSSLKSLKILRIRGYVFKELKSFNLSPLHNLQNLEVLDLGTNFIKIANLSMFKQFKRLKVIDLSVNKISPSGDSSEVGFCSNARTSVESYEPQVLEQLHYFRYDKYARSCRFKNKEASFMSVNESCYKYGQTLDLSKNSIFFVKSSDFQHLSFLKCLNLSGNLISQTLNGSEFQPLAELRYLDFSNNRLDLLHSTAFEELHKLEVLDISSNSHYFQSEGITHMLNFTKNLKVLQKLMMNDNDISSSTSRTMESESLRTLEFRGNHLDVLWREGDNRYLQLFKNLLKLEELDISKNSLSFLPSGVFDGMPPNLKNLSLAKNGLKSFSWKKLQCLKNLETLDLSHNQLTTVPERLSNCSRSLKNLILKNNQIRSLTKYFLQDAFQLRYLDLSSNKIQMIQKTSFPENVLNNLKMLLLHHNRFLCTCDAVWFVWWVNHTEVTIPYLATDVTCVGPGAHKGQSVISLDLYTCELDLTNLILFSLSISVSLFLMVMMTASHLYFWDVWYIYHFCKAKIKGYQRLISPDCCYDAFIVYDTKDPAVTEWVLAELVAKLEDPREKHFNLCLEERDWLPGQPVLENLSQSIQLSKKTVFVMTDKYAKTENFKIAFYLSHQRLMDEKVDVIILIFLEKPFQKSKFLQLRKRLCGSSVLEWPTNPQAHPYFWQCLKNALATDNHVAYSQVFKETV
Kind of test: TLR7 EC50 assay. To be noted: Table 2.

The target in the next test is T3, TLR8 (Homo sapiens, UniProt Q9NR97).
T3 sequence (Q9NR97 27-1041): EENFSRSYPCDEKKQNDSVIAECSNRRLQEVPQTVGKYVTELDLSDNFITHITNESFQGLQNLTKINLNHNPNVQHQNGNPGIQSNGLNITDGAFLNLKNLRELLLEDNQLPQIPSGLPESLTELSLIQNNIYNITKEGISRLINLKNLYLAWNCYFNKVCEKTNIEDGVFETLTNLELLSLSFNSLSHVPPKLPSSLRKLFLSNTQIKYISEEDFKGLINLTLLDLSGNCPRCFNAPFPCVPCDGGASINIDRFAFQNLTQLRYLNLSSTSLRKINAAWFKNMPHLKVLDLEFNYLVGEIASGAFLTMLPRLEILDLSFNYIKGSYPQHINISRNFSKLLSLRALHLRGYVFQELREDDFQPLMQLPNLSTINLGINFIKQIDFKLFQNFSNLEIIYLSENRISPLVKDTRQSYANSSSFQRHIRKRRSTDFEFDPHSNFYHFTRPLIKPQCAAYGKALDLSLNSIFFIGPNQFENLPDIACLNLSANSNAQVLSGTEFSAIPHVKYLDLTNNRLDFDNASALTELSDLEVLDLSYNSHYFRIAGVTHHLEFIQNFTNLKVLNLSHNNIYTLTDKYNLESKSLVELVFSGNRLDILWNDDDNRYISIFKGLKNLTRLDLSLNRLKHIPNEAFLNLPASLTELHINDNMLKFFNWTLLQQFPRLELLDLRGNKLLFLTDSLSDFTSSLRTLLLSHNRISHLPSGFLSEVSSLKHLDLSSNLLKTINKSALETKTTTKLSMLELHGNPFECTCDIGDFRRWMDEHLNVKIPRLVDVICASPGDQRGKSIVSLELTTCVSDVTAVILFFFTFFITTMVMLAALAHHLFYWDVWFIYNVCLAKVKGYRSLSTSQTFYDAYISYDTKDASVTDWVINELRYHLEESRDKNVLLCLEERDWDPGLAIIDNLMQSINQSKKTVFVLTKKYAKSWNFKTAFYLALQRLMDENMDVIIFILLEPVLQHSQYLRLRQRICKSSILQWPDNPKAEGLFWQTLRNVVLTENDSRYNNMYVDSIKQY
Kind of test: TLR8 EC50 assay. To be noted: Table 2.

T1 sequence (Q96P20 whole entry): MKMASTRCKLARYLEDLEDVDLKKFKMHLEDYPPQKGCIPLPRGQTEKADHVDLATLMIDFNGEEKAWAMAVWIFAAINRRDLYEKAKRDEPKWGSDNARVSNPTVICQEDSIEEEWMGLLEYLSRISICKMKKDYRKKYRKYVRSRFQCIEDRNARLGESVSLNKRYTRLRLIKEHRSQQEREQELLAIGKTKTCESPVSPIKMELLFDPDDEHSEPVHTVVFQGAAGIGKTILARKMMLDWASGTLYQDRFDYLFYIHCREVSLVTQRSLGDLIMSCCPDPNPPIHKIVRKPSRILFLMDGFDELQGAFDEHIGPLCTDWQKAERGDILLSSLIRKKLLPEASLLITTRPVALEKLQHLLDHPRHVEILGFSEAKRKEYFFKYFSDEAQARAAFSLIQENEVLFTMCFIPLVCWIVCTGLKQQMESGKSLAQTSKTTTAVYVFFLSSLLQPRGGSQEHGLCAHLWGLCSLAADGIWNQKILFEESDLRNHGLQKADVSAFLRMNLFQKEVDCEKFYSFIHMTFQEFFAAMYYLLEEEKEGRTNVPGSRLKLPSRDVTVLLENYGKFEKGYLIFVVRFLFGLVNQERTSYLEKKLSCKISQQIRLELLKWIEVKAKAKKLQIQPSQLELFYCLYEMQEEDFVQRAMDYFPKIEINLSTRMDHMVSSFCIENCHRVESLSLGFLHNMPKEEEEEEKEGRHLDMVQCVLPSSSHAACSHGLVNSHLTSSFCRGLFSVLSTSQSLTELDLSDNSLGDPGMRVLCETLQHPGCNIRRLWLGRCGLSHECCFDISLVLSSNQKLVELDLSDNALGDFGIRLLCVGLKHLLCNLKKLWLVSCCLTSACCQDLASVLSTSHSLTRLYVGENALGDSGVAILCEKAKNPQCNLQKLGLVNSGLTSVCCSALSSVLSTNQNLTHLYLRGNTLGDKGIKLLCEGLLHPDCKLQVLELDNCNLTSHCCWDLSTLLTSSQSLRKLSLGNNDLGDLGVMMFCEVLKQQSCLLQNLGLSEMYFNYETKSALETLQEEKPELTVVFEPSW

As usually defined, the EC50 is the concentration needed to bring the measured effect to its halfway point. Low values mean an effect from little substance, high ones a need for much substance. Regarding `Cc1cc(C)n(-c2ccc3c(c2)nc(N)c2nc(CCCO)[nH]c23)n1` [Compound 194, 3-[4-amino-7-(3,5-dimethylpyrazol-1-yl)-1H-imidazo[4,5-c]quinolin-2-yl]propan-1-ol], the EC50 on hNLRP3 is 20 to 100 µM; on TLR7, 20 to 100 µM; on TLR8, more than 100 µM.
With `Nc1nc2ccccc2c2[nH]c([C@H]3C[C@@H](O)C3)nc12` [Compound 132], the EC50 at hNLRP3 was 20 to 100 µM; at TLR7 it was more than 100 µM; on TLR8 it was more than 100 µM.
`Nc1nc2cc(-c3nccs3)ccc2c2[nH]c(CCCO)nc12` [Compound 184, 3-[4-amino-7-(1,3-thiazol-2-yl)-1H-imidazo[4,5-c]quinolin-2-yl]propan-1-ol]: the EC50 at hNLRP3, on TLR7 and at TLR8 was more than 100 µM throughout.
As for `Nc1nc2cc(N3CCCC3=O)ccc2c2[nH]c(CCCO)nc12` [Compound 183, 1-[4-amino-2-(3-hydroxypropyl)-1H-imidazo[4,5-c]quinolin-7-yl]pyrrolidin-2-one], the values for the EC50 on hNLRP3, on TLR7 and at TLR8 were 20 to 100 µM, more than 100 µM and more than 100 µM, respectively.
As for `Cn1c(CCCO)nc2c3ccc(-n4cccn4)cc3nc(N)c21` [Compound 113], the values for the EC50 at hNLRP3, on TLR7 and on TLR8 were 1 to 20 µM, more than 100 µM and more than 100 µM, respectively.
For the compound `Nc1nc2cc(-c3cccnc3F)ccc2c2[nH]c(CCCOCc3ccccc3)nc12` [Compound 157, 7-(2-fluoropyridin-3-yl)-2-(3-phenylmethoxypropyl)-1H-imidazo[4,5-c]quinolin-4-amine], the EC50 at hNLRP3, on TLR7 and at TLR8 was more than 100 µM throughout.
On to `Nc1nc2ccccc2c2[nH]c(C3CCNCC3)nc12` [Compound 224], for which the EC50 is 20 to 100 µM on hNLRP3, more than 100 µM at TLR7 and more than 100 µM at TLR8.
On to `COC(=O)CCCn1c(CCCO)nc2c(N)nc3cc(Br)ccc3c21` [Compound 141], for which the EC50 on hNLRP3 was 1 to 20 µM; on TLR7, more than 100 µM; on TLR8 it was more than 100 µM.
`CC(C)(C)OC(=O)N1CCC(c2nc3c(N)nc4cc(-c5ccccc5)ccc4c3[nH]2)CC1` [Compound 219]: the EC50 was not above 1 µM at hNLRP3, more than 100 µM on TLR7 and more than 100 µM at TLR8.
Turning to `Nc1ccc(-c2ccc3c(c2)nc(N)c2nc(CCCO)[nH]c23)cn1` [Compound 170, 3-[4-amino-7-(6-aminopyridin-3-yl)-1H-imidazo[4,5-c]quinolin-2-yl]propan-1-ol], the EC50 at hNLRP3, on TLR7 and on TLR8 was more than 100 µM throughout.
Regarding `Nc1nc2cc(C(F)(F)F)ccc2c2[nH]c(CCCO)nc12` [Compound 127], the figures for the EC50 on hNLRP3, on TLR7 and at TLR8 were 20 to 100 µM, 20 to 100 µM and more than 100 µM, respectively.
Regarding `Nc1nc2cc(-c3cnoc3)ccc2c2[nH]c(CCCO)nc12` [Compound 195, 3-[4-amino-7-(1,2-oxazol-4-yl)-1H-imidazo[4,5-c]quinolin-2-yl]propan-1-ol], the EC50 at hNLRP3, at TLR7 and at TLR8 was more than 100 µM throughout.
Take `Cn1nccc1-c1ccc2c(c1)nc(N)c1nc(CCCO)[nH]c12` [Compound 190, 3-[4-amino-7-(2-methylpyrazol-3-yl)-1H-imidazo[4,5-c]quinolin-2-yl]propan-1-ol]: the EC50 at hNLRP3 is 20 to 100 µM; on TLR7, more than 100 µM; on TLR8, more than 100 µM.
Regarding `Nc1nc2cc(-c3cccc(F)c3)ccc2c2[nH]c(CCCO)nc12` [Compound 208, 3-[4-amino-7-(3-fluorophenyl)-1H-imidazo[4,5-c]quinolin-2-yl]propan-1-ol], the EC50 at hNLRP3, on TLR7 and on TLR8 was more than 100 µM throughout.
In the case of `Cc1cc2nc(N)c3nc(CCCO)[nH]c3c2cc1F` [Compound 128], the EC50 was 20 to 100 µM at hNLRP3, more than 100 µM at TLR7 and 20 to 100 µM at TLR8.
For the compound `CC(=O)N1CCC(c2nc3c(N)nc4cc(Br)ccc4c3[nH]2)CC1` [Compound 226], the EC50 is 20 to 100 µM on hNLRP3, more than 100 µM at TLR7 and more than 100 µM on TLR8.
As for `Nc1nc2cc(Br)ccc2c2[nH]c(C3CCC(N)CC3)nc12` (stereo not drawn) [Compound 131], the values for the EC50 at hNLRP3, at TLR7 and at TLR8 were 20 to 100 µM, more than 100 µM and 20 to 100 µM, respectively.
`CN(C)c1nc(-c2ccc3c(c2)nc(N)c2nc(CCCO)[nH]c23)cs1` [Compound 177, 3-[4-amino-7-[2-(dimethylamino)-1,3-thiazol-4-yl]-1H-imidazo[4,5-c]quinolin-2-yl]propan-1-ol]: the EC50 at hNLRP3, at TLR7 and at TLR8 was more than 100 µM throughout.
`Nc1nc2cc(Br)ccc2c2[nH]c([C@H]3CC[C@H](O)CC3)nc12` [Compound 125]: the EC50 on hNLRP3 is 1 to 20 µM; at TLR7, more than 100 µM; at TLR8 it was more than 100 µM.
For `Cc1cc(-c2ccc3c(c2)nc(N)c2nc(CCCOCc4ccccc4)[nH]c23)n(C)n1` [Compound 150, 7-(2,5-dimethylpyrazol-3-yl)-2-(3-phenylmethoxypropyl)-1H-imidazo[4,5-c]quinolin-4-amine], the EC50 on hNLRP3, at TLR7 and at TLR8 was more than 100 µM each time.
With `Nc1nc2cc(-c3ccncc3)ccc2c2[nH]c(CCCO)nc12` [Compound 149], the EC50 on hNLRP3 was 1 to 20 µM; on TLR7 it was more than 100 µM; at TLR8 it was more than 100 µM.
As for `Nc1nc2cc(-c3cccnc3F)ccc2c2[nH]c(CCCO)nc12` [Compound 158, 3-[4-amino-7-(2-fluoropyridin-3-yl)-1H-imidazo[4,5-c]quinolin-2-yl]propan-1-ol], the EC50 at hNLRP3 was 1 to 20 µM; at TLR7, more than 100 µM; on TLR8, more than 100 µM.
On to `Nc1nc2ccccc2c2[nH]c([C@H]3C[C@H](O)C3)nc12` [Compound 133], for which the EC50 on hNLRP3 was 20 to 100 µM; on TLR7, more than 100 µM; on TLR8, more than 100 µM.
Take `Nc1nc2cc(CC(=O)O)ccc2c2[nH]c(CCCO)nc12` [Compound 121]: the EC50 at hNLRP3 is 1 to 20 µM; at TLR7, more than 100 µM; at TLR8, more than 100 µM.
